Results: ChEMBL document CHEMBL1201862, “PubChem BioAssay data set” (2004)
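All cell lines were grown in 96-well plates and treated with compound for 48 hours. At the GI50, growth is halved.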 Activity calls are given as the source filed them. No stated cut-off is given here; in the data, active = GI50 up to about 1.1 µM and inactive = higher.

Legend:
Experiment in all cases: NCI tumour cell line growth inhibition, 48 h
HOP-92 = tested on: HOP-92
SNB-75 = tested on: SNB-75
OVCAR-8 = tested on: OVCAR-8
SW-620 = tested on: SW-620
SK-MEL-2 = tested on: SK-MEL-2
PC-3 = tested on: PC-3
HCC 2998 = tested on: HCC 2998
HCT-116 = tested on: HCT-116
KM12 = tested on: KM12
BT-549 = tested on: BT-549
UO-31 = tested on: UO-31
OVCAR-5 = tested on: OVCAR-5
Malme-3M = tested on: Malme-3M
COLO 205 = tested on: COLO 205
CCRF-CEM = tested on: CCRF-CEM
UACC-257 = tested on: UACC-257
ACHN = tested on: ACHN
RXF 393 = tested on: RXF 393
RPMI-8226 = tested on: RPMI-8226

Row | Compound | GI50 (HOP-92) | GI50 (SNB-75) | GI50 (OVCAR-8) | GI50 (SW-620) | GI50 (SK-MEL-2) | GI50 (PC-3) | GI50 (HCC 2998) | GI50 (HCT-116) | GI50 (KM12) | GI50 (BT-549) | GI50 (UO-31) | GI50 (OVCAR-5) | GI50 (Malme-3M) | GI50 (COLO 205) | GI50 (CCRF-CEM) | GI50 (UACC-257) | GI50 (ACHN) | GI50 (RXF 393) | GI50 (RPMI-8226)
1 | C=C1CC[C@H](O)C(C)(C)[C@@H]1CC/C(C)=C/CC/C=C(\C)CC/C=C(\C)CCC=C(C)C | > 100 µM (inactive) | > 100 µM (inactive) | 57.8 µM (inactive) | > 100 µM (inactive) | 46.7 µM (inactive) | > 100 µM (inactive) | 76.6 µM (inactive) | 43.7 µM (inactive) | > 100 µM (inactive) | > 100 µM (inactive) | > 100 µM (inactive) | > 100 µM (inactive) | > 100 µM (inactive) | > 100 µM (inactive) | 1.82 µM (inactive) | > 100 µM (inactive) | > 100 µM (inactive) | 13.7 µM (inactive) | 
2 | COC(=O)[C@@H]1C=CCN1S(=O)(=O)c1ccc(C)cc1 | 55.5 µM (inactive) | > 100 µM (inactive) | > 100 µM (inactive) | > 100 µM (inactive) | > 100 µM (inactive) | > 100 µM (inactive) | 70.6 µM (inactive) | 34.2 µM (inactive) | > 100 µM (inactive) | > 100 µM (inactive) | > 100 µM (inactive) | > 100 µM (inactive) | 71.6 µM (inactive) | > 100 µM (inactive) | 21.8 µM (inactive) | > 100 µM (inactive) | > 100 µM (inactive) | 50.5 µM (inactive) | > 100 µM (inactive)
3 | C/C(=N\NC(N)=S)c1sc(-n2nc(-c3ccccc3)cc2-c2ccccc2)nc1C | > 100 µM (inactive) | > 100 µM (inactive) | > 100 µM (inactive) | > 100 µM (inactive) | > 100 µM (inactive) | 63.1 µM (inactive) | > 100 µM (inactive) | 55.8 µM (inactive) | > 100 µM (inactive) | > 100 µM (inactive) | 69.7 µM (inactive) | > 100 µM (inactive) | > 100 µM (inactive) | > 100 µM (inactive) | 36.5 µM (inactive) | 85.5 µM (inactive) | > 100 µM (inactive) | > 100 µM (inactive) | 16.9 µM (inactive)
4 | CCCc1cn2c(/C=N/NC(=N)N)c(-c3ccc([N+](=O)[O-])cc3)nc2s1 | 6.01 µM (inactive) | 1.8 µM (inactive) | 1.9 µM (inactive) | 0.342 µM (active) | 2.13 µM (inactive) | 2.01 µM (inactive) | 0.578 µM (active) | 0.377 µM (active) | 1.52 µM (inactive) | 1.92 µM (inactive) | 1.91 µM (inactive) | 1.71 µM (inactive) | 2.5 µM (inactive) | 0.891 µM (active) | 0.277 µM (active) | 1.73 µM (inactive) | 1.67 µM (inactive) | 1.73 µM (inactive) | 0.45 µM (active)
5 | CCC(C)C1NC(=O)C(NC(=O)c2c3nc4c(C(=O)NC5C(=O)NC(C(C)CC)C(=O)N6CCCC6C(=O)N(C)CC(=O)N(C)C(C(C)C)C(=O)OC5C)ccc(C)c4oc-3c(C)c(=O)c2O)C(C)OC(=O)C(C(C)C)N(C)C(=O)CN(C)C(=O)C2CCCN2C1=O (stereo not drawn) | 6.76 µM (inactive) | 2.62 µM (inactive) | 1.6 µM (inactive) | 1.09 µM (active) | 2.07 µM (inactive) | 3.99 µM (inactive) | 3.16 µM (inactive) | 0.55 µM (active) | 1.63 µM (inactive) | 5.81 µM (inactive) | 10.4 µM (inactive) | 11.6 µM (inactive) | 1.98 µM (inactive) | 1.35 µM (inactive) | 0.499 µM (active) | 3.3 µM (inactive) | 4.89 µM (inactive) | 2.54 µM (inactive) | 0.902 µM (active)
6 | C[C@@H](CC(O)C(O)C(C)(C)O)C1CCC23CC12CCC1[C@@]2(C)CCC(=O)C(C)(C)C2CC(OC2OC(CO)C(O)C(O)C2O)[C@]13C (stereo partly drawn) | > 10 µM (inactive) | > 10 µM (inactive) | > 10 µM (inactive) | > 10 µM (inactive) | > 10 µM (inactive) | > 10 µM (inactive) | > 10 µM (inactive) | > 10 µM (inactive) | > 10 µM (inactive) | > 10 µM (inactive) | > 10 µM (inactive) | > 10 µM (inactive) | > 10 µM (inactive) | > 10 µM (inactive) | > 10 µM (inactive) |  | > 10 µM (inactive) | > 10 µM (inactive) | > 10 µM (inactive)
7 | O=c1[nH]c(Nc2nc3ccccc3[nH]2)nc(O)c1-c1ccccc1 | > 100 µM (inactive) | > 100 µM (inactive) | > 100 µM (inactive) | > 100 µM (inactive) | > 100 µM (inactive) | > 100 µM (inactive) | > 100 µM (inactive) | > 100 µM (inactive) |  | > 100 µM (inactive) | > 100 µM (inactive) | > 100 µM (inactive) | > 100 µM (inactive) | > 100 µM (inactive) | > 100 µM (inactive) | > 100 µM (inactive) | > 100 µM (inactive) | > 100 µM (inactive) | 
8 | Cc1cc(C)c2c(c1)CC1(Cc3cc(C)c(C)cc3C1=O)C2=O (stereo not drawn) | 60.5 µM (inactive) | > 100 µM (inactive) | > 100 µM (inactive) | 95.7 µM (inactive) | > 100 µM (inactive) | > 100 µM (inactive) | > 100 µM (inactive) |  | > 100 µM (inactive) | > 100 µM (inactive) | > 100 µM (inactive) | 48.1 µM (inactive) | 4.75 µM (inactive) | > 100 µM (inactive) | > 100 µM (inactive) | > 100 µM (inactive) | > 100 µM (inactive) | 44.9 µM (inactive) | > 100 µM (inactive)
9 | COC(=O)/C=C/CCC#Cc1ccccc1C#CCC/C=C/C(=O)OC | 15.7 µM (inactive) | 2.89 µM (inactive) | 6.46 µM (inactive) | 4.89 µM (inactive) |  | 14.3 µM (inactive) | 50.1 µM (inactive) | 3.48 µM (inactive) | 4.98 µM (inactive) | 7.55 µM (inactive) | 19.5 µM (inactive) | 23.5 µM (inactive) | 3.9 µM (inactive) | 5.48 µM (inactive) | 4.48 µM (inactive) | 23.7 µM (inactive) | 23.7 µM (inactive) | 4.49 µM (inactive) | 
10 | C=[N+](CNC(=O)CNC(=O)C(Cc1ccc([N+](=O)[O-])cc1)NC(=O)OC(C)(C)C)C(=O)CNC(=O)C(Cc1ccc([N+](=O)[O-])cc1)NC(=O)OC(C)(C)C (stereo not drawn) | 38.1 µM (inactive) | 32.9 µM (inactive) | 52.7 µM (inactive) | 41.6 µM (inactive) |  | 29.8 µM (inactive) | 38.9 µM (inactive) | 36.2 µM (inactive) | 53.1 µM (inactive) | 28.1 µM (inactive) | > 100 µM (inactive) | > 100 µM (inactive) | 44.6 µM (inactive) | 58.2 µM (inactive) |  |  | > 100 µM (inactive) | 39.4 µM (inactive) | 16.9 µM (inactive)
11 | CN(CCCNC(=O)c1cn(C)c2c1ccc1cc(Cl)ccc12)CCCNC(=O)c1cn(C)c2c1ccc1cc(Cl)ccc12 | 3.6 µM (inactive) | 1.57 µM (inactive) | 1.82 µM (inactive) | 1.62 µM (inactive) | 1.69 µM (inactive) | 1.78 µM (inactive) | 1.2 µM (inactive) | 1.88 µM (inactive) | 1.72 µM (inactive) | 8.99 µM (inactive) | 1.41 µM (inactive) | 3.09 µM (inactive) | 2.52 µM (inactive) | 1.47 µM (inactive) | 1.23 µM (inactive) | 2.19 µM (inactive) | 1.71 µM (inactive) | 1.3 µM (inactive) | 
12 | O=C(CC(C(=O)c1cccs1)c1ccsc1)c1cccs1 (stereo not drawn) | 94.2 µM (inactive) | 12.8 µM (inactive) | > 100 µM (inactive) | 81.7 µM (inactive) |  | 45.2 µM (inactive) | 83.9 µM (inactive) | 29.9 µM (inactive) | 71.3 µM (inactive) | 81.8 µM (inactive) | 51.3 µM (inactive) | > 100 µM (inactive) | > 100 µM (inactive) | 75.2 µM (inactive) | 37.8 µM (inactive) | > 100 µM (inactive) | > 100 µM (inactive) | 53.6 µM (inactive) | 
13 | CN(N)C(=O)NCCCl | > 100 µM (inactive) | > 100 µM (inactive) |  | > 100 µM (inactive) | > 100 µM (inactive) | > 100 µM (inactive) | > 100 µM (inactive) | > 100 µM (inactive) | > 100 µM (inactive) | > 100 µM (inactive) | > 100 µM (inactive) | > 100 µM (inactive) | > 100 µM (inactive) | > 100 µM (inactive) | > 100 µM (inactive) | > 100 µM (inactive) | > 100 µM (inactive) | > 100 µM (inactive) | > 100 µM (inactive)
14 | CC(C)=CCC/C(C)=C/CC/C(C)=C/CC/C(C)=C/CC/C(C)=C\CC/C(C)=C/CC/C(C)=C/CC/C(C)=C/Cc1cc(O)ccc1O | 8.49 µM (inactive) | 3.41 µM (inactive) | 1.15 µM (inactive) | 2.28 µM (inactive) | 0.682 µM (active) | 0.689 µM (active) | 4.99 µM (inactive) | 0.561 µM (active) | 0.632 µM (active) | 1.98 µM (inactive) | 1.72 µM (inactive) | 9.27 µM (inactive) | 0.292 µM (active) | 0.387 µM (active) | 0.955 µM (active) | 0.387 µM (active) | 4.75 µM (inactive) | 0.344 µM (active) | 
15 | CC1(C)C2CCC1(C)C(NC(=O)CCN1CCOCC1)C2 (stereo not drawn) | > 100 µM (inactive) | > 100 µM (inactive) | > 100 µM (inactive) | > 100 µM (inactive) |  | > 100 µM (inactive) | > 100 µM (inactive) | > 100 µM (inactive) | > 100 µM (inactive) | > 100 µM (inactive) | > 100 µM (inactive) | > 100 µM (inactive) | > 100 µM (inactive) | > 100 µM (inactive) | > 100 µM (inactive) | > 100 µM (inactive) | > 100 µM (inactive) | > 100 µM (inactive) | 
